Results on two compounds are retold here after patent publication US6375461B1 (Ultradent Products, Inc., priority 2000, dated 2002).

Where two headings read alike, the source gives them in different places.

The test system of data set [1] is heart rate and blood pressure. Conditions: in vivo.
For data set [2] the following is noted: mixed with ferric salts; cited from earlier work.
The subject of another data set is gingival tissue. The data set is described as follows: Local effect on gingival tissue when used in gingival retraction cords. The format is in vivo, patient.
The nature of data set [3]: Reaction with iron-based astringents (ferric salts), formation of colored reaction products. The class given is physicochemical. Particulars: mixed with astringent salts.
Data set [4] has as its system heart rate and blood pressure. The data set can be described thus: Systemic effects (heart rate, blood pressure) of retraction cords packed into the gingival sulcus. Particulars: retraction cords packed into a person's gingival sulcus.
The conditions of data set [5]: cited from earlier work.

For `CNC[C@H](O)c1ccc(O)c(O)c1` [epinephrine], the “systemic effects: heart rate and blood pressure” value in data set [1] was “increase a patient's heart rate and blood pressure”. Also, in data set [2], the “colored reaction products with ferric salts (known)” value is “immediately form purple-colored reaction products”.

Regarding `CNC(C)CC1CCCCC1` (stereo not drawn) [Propylhexedrine, N,α-dimethylcyclohexaneethylamine], the “stiffening and retraction of gingival tissue” value in the data set with gingival tissue (gingival tissue) is “localized stiffening and retraction of gingival tissue”. Further, in the data set with gingival tissue (used in gingival retraction cords), the vasoconstricting effect result is given as “localized vasoconstricting effect”. Besides, in data set [3], the “colored reaction products with astringent salts including ferric salts” value was “without forming colored reaction products”. Moreover, in data set [4], the “systemic effects: heart rate and blood pressure” value is on record as “does not produce the systemic adrenal effects”. The “volume of water in which 1 gram is dissolvable” value in data set [5] was 500 mL.
